Converted amounts (≈) assume the structure as drawn. “Also recorded” adds a separate entry of the source.
Experiments:
esterase of pig pancreas = assay: Inhibition of esterase (decomposition of p-nitrophenyl acetate by crude lipase preparation); type: biochemical
Procedure: Thus, a commercially available, crude lipase preparation obtained from pig pancreas is dissolved to a concentration of 0.5% (by weight) in a 0.05 M phosphate buffered solution (pH 7.0) containing 0.2% "Triton X-100" (a trade name of an emulsifier consisting of a polyethyleneglycol alkylphenylether, a product of Rohm & Haas Co., U.S.A.). 0.03 ml of this lipase solution, 2.92 ml of 0.05 M phosphate buffered solution (pH 7.0) and 0.025 ml of a solution containing an esterastin sample to be assayed are mixed together, and the resulting mixture (2.975 ml) is warmed at 20° C. for 3 minutes and then admixed with 0.025 ml of a solution containing 10 mg/ml of p-nitrophenyl acetate in methanol to start the reaction of p-nitrophenyl acetate with lipase. After the reaction was effected at 20° C. for 30 minutes, absorbance (a) at 400 nm of the resulting reaction solution is measured. On the other hand, absorbance (b) at 400 nm of a control reaction solution obtained from the blank test using the 0.05 M phosphate buffered solution containing no esterastin is measured in the same way as above. Degree (%) of inhibition to esterase is calculated according to the following equation: [formula]

[1] = tested on: antibody-forming cells per spleen; assay: Effect on formation of humoral antibody (Jerne plaque technique, SRBC-immunized mice); type: in vivo, dd/Y mice; details: for Number of antibody-forming cells per spleen (± S.E.): 10^8 SRBC i.v., day 4
Procedure: Groups of dd/Y mice (5 female mice per group, 6-8 weeks old) were immunized with 10^8 red blood cells of sheep as the anitgen (in the form of a suspension in physiological saline solution) by intravenous injection to develop the immunity. At the same time, 1 mg, 250 mcg, 62.5 mcg or 15.6 mcg of esterastin (in the form of a suspension in 1% DMSO-saline) per mouse were intraperitoneally injected into the separate groups of mice, respectively. On the 4 days after the immunization, the mice treated were sacrificed, spleen was teased and the number of the antibody-forming cells present in each mouse spleen was enumerated according to the method of Jerne (see N. K. Jerne, A. A. Nordin and C. Henry: "The agar plaque technique for recognizing antibody-producing cells. Cell-bound Antibodies." ed. B. Amos and H. Koprowski pp. 109-122, Wister Institute Press. Philadelphia, 1963).

Solubility in solvents = type: physicochemical
mice = assay: Acute toxicity in mice; type: in vivo; details: 250 mg/kg, intraperitoneal injection
Text: As known substances which inhibit the esterase, there may be mentioned paradoxon and di-isopropyl fluorophosphate etc., which are highly toxic compounds. […] In these respects, it also can be confirmed that esterastin is a novel substance.

cultured cells = assay: Cell toxicity to cultured cells; type: cell-based; details: concentration of 10 mcg/ml
D.T.H. to SRBC in mice = assay: Effect on cell-mediated immunity (Delayed Type Hypersensitivity to SRBC, footpad swelling); type: in vivo, dd/Y mice; details: for Increase of footpad thickness: 24 hours after eliciting injection of 10^8 SRBC
Procedure: Effect of esterastin on the cellular immunity was tested according to a known Delayed Type Hypersensitivity (D.T.H.) technique (see P. H. Lagrange, G. B. Mackaness and T. E. Mille: "J. Exp. Med.", 139, 1529-1539 (1974)) using mice immunized with sheep red blood cells as the antigen.
Thus, 10^8 sheep red blood cells suspended in 0.05 ml of physiological saline solution were immunized by subcutaneous injection to the one side of dd/Y mice hind footpad (5 mice per group, female, 6-weeks old) to establish delayed-type hypersensitivity. At the same time as this immunization, 1 mg/mouse, 250 mcg/mouse, 62.5 mcg/mouse or 15.6 mcg/mouse of esterastin were intraperitoneally injected to each test mouse. Four days later, 10^8 sheep rod blood cells were injected subcutaneously into the other side of each test mouse footpad for elicitation of D.T.H. response. 24 Hours after the eliciting injection, the thickness (in mm) of the footpad was measured to evaluate the degree of the swelling in the footpad which received the eliciting injection of sheep rod blood cells. The extent of the swelling in the footpad serves as a measure to estimate the cellular immunity involved.

## CCCCCC=CCC=CCC(CC1OC(=O)C1CCCCCC)OC(=O)C(CC(N)=O)NC(C)=O (stereo not shown) [esterastin]
Esterase of pig pancreas; p-nitrophenyl acetate as the substrate, read-out: concentration giving 50% inhibition of esterase
  IC50: 0.041 nM
Esterase of pig pancreas; p-nitrophenyl acetate substrate, pH 7.0, 20° C., 30 minutes
  ID50, dose giving 50% inhibition to esterase: 0.2 ng/mL (≈ 0.395 nM)
[1]; 1 mg per mouse i.p.
  Number of antibody-forming cells per spleen (± S.E.): 45,300 ± 3,300
[1]; 1 mg to 62.5 mcg to mice
  effect on number of the antibody forming cells (in words): remarkably reduces the number of the antibody forming cells
[1]; 15.6 mcg per mouse i.p.
  Number of antibody-forming cells per spleen (± S.E.): 173,000 ± 19,600
[1]; 62.5 mcg per mouse i.p.
  Number of antibody-forming cells per spleen (± S.E.): 55,000 ± 5,700
[1]; 250 mcg per mouse i.p.
  Number of antibody-forming cells per spleen (± S.E.): 52,000 ± 2,300
Solubility in solvents; petroleum ether and hexane
  solubility in petroleum ether and hexane: sparingly soluble; also recorded: substantially insoluble
Solubility in solvents; pyridine, dimethylsulfoxide, methanol, ethanol, acetone, ethyl acetate, butyl acetate, chloroform and benzene
  solubility in organic solvents: readily soluble
Solubility in solvents; water
  solubility in water: sparingly soluble; also recorded: substantially insoluble
mice
  acute toxicity: no toxicity was observed at all; also recorded: does not give any sympton of toxicity at all
Cultured cells
  cell toxicity to the cultured cells: no cell toxicity
D.T.H. to SRBC in mice; 1 mg to 250 mcg to mice
  effect on development of D.T.H. (in words): remarkably suppresses the development of D.T.H.
D.T.H. to SRBC in mice; 1 mg/mouse i.p.
  Increase of footpad thickness: 3.8 × 0.1 mm
D.T.H. to SRBC in mice; 62.5 mcg/mouse i.p.
  Increase of footpad thickness: 6.2 × 0.1 mm
D.T.H. to SRBC in mice; 250 mcg/mouse i.p.
  Increase of footpad thickness: 3.0 × 0.1 mm

— patent US4242453A, “Cultivating streptomyces to produce an esterase inhibitor” (Zaidan Hojin Biseibutsu Kagaku Kenkyu Kai, priority 1977, dated 1980)
